Test system: L1210 leukemia (ip)
Assay: Antileukemic screen, L1210 tumour ip, drug ip qd 1-5
Assay type: in vivo, mice (C3H/DBA2 F1 hybrids)
Details: for Observed ILS compared with predicted ILS: in words
Text: In initial screening a standard drug administration schedule has been employed (ip, qd 1-5) and mice (C3 H/DBA2 F1 hybrids) bred in the laboratory, receive a standard tumor inoculum of 10^5 L1210 cells ip on day 0. After range finding experiments, an LD10 dose has then been derived employing doses separated by 0.05 log.dose units, an acceptable soluble drug formulation (B. F. Cain, R. N. Seelye and G. J. Atwell, J. Med. Chem., 17, 922-930 (1974)) and groups of six tumored mice at each dose level. Deaths occuring before day 8 have been taken as resulting from drug toxicity. From the linear regression relating percent probit-mortality and the logarithms of the corresponding doses, an LD10 value has been derived. Profiles of antileukemic activity have been obtained employing doses separated by 0.09 log.dose intervals. Significant percentage increases in life span of leukemic animals, obtained at and below the LD10 dose, have been linearly correlated with the logarithms of the corresponding doses. The increase in life span (ILS) specified by the life extension-log.dose regression line at the measured LD10 provides a representative measure of antileukemic effectiveness at a standard host load in toxicity (W. A. Denny and B. F. Cain, J. Med. Chem., 21, 430-437 (1978)). For congener selection ILS has been employed as a measure of factor (1) above and LD10 for factor (2). Desirable drug pharmacokinetic properties (factor (3)) have been screened for by employing standard ip drug administration and implanting tumor more remotely; either subcutaneously (sc) or intracerabrally (ic) (B. F. Cain and G. J. Atwell Europ J. Cancer, 10, 539 549 (1974), B. F. Cain and G. J. Atwell, J. Med. Chem., 19 1409-1416 (1976)).
ILS and LD10=as defined above.
D40=the drug dose necessary to provide 40% ILS in standard L1210 assays.

[1] = monosubstituted m-AMSA, Table V

SMILES	ILS Observed (L1210-ip, qd 1-5, Table IV)	Observed ILS compared with predicted ILS	ILS Observed [1]
COc1cc(NS(C)(=O)=O)ccc1Nc1c2ccccc2nc2cc(Br)c(N)cc12 [Compound C1]	90%		
COc1cc(NS(C)(=O)=O)ccc1Nc1c2ccccc2nc2cc(C(F)(F)F)c(N)cc12 [Compound C2]	108%	observed ILS values greater than their predicted ILS values	
COc1cc(NS(C)(=O)=O)ccc1Nc1c2ccccc2nc2c(C)c([N+](=O)[O-])ccc12 [Compound C3]	54%		
COc1cc(NS(C)(=O)=O)ccc1Nc1c2ccccc2nc2c(C)c(C)ccc12 [Compound C4]	79%		
COc1cc(NS(C)(=O)=O)ccc1Nc1c2ccc([N+](=O)[O-])cc2nc2c(C)cccc12 [Compound C5]	107%	observed ILS values greater than their predicted ILS values	
COc1cc(NS(C)(=O)=O)ccc1Nc1c2ccc([N+](=O)[O-])cc2nc2c(OC)cccc12 [Compound C6]	66%		
COc1cc(NS(C)(=O)=O)ccc1Nc1c2ccc(N)cc2nc2c(C)cccc12 [Compound C7]	125%	observed ILS values greater than their predicted ILS values	
COc1cc(NS(C)(=O)=O)ccc1Nc1c2ccc(I)cc2nc2c(C)cccc12 [Compound C8]	86%		
COc1cc(NS(C)(=O)=O)ccc1Nc1c2ccc(I)cc2nc2c(OC)cccc12 [Compound C9]	63%		
CNc1ccc2c(Nc3ccc(NS(C)(=O)=O)cc3OC)c3cccc(C)c3nc2c1 [Compound C10]	68%		
COc1cc(NS(C)(=O)=O)ccc1Nc1c2ccc(Cl)cc2nc2c(C)cccc12 [Compound C11]	57%		
COc1cc(NS(C)(=O)=O)ccc1Nc1c2ccc(Cl)cc2nc2c(OC)cccc12 [Compound C12]	82%		
COc1cc(NS(C)(=O)=O)ccc1Nc1c2ccc(C)cc2nc2c(C)cccc12 [Compound C13]	97%		
COc1cc(NS(C)(=O)=O)ccc1Nc1c2ccc(C)cc2nc2c(C(N)=O)cccc12 [Compound C14]	100%		
COc1cc(NS(C)(=O)=O)ccc1Nc1c2ccc(Cl)cc2nc2c(C(N)=O)cccc12 [Compound C15]	90%		
COc1cc(NS(C)(=O)=O)ccc1Nc1c2ccc([N+](=O)[O-])cc2nc2c(C(N)=O)cccc12 [Compound C16]	100%	observed ILS values greater than their predicted ILS values	
COc1cc(NS(C)(=O)=O)ccc1Nc1c2ccc(C(N)=O)cc2nc2c(C)cccc12 [Compound C17]	150%	observed ILS values greater than their predicted ILS values	
COc1cc(NS(C)(=O)=O)ccc1Nc1c2ccc(C(N)=O)cc2nc2c(OC)cccc12 [Compound C18]	70%		
COc1cc(NS(C)(=O)=O)ccc1Nc1c2ccc(Cl)cc2nc2cc(Cl)ccc12 [Compound C19]	52%		
COc1cc(NS(C)(=O)=O)ccc1Nc1c2ccc(Cl)cc2nc2cc(C(F)(F)F)ccc12 [Compound C20]	5%		
COc1cc(NS(C)(=O)=O)ccc1Nc1c2ccc(Br)cc2nc2cc(Br)ccc12 [Compound C21]	82%		
COc1cc(NS(C)(=O)=O)ccc1Nc1c2ccc(C)cc2nc2cc([N+](=O)[O-])ccc12 [Compound C22]	91%	observed ILS values greater than their predicted ILS values	
COc1cc(NS(C)(=O)=O)ccc1Nc1c2ccc([N+](=O)[O-])cc2nc2cc([N+](=O)[O-])ccc12 [Compound C23]	58%		
COc1cc(NS(C)(=O)=O)ccc1Nc1c2cccc(C)c2nc2c(C)cccc12 [Compound C24]	87%		

SMILES	ILS Observed (L1210-ip, qd 1-5, Table IV)	Observed ILS compared with predicted ILS	ILS Observed [1]
COc1cc(NS(C)(=O)=O)ccc1Nc1c2ccccc2nc2c(C)c(C)c(N)cc12 [Compound C25]	61%		
COc1cc(NS(C)(=O)=O)ccc1Nc1c2cc(N)c(Br)cc2nc2c(C)cccc12 [Compound C26]	83%		
COc1cc(NS(C)(=O)=O)ccc1Nc1c2cccc(C)c2nc2c(C)c([N+](=O)[O-])ccc12 [Compound C27]	28%		
COc1cc(NS(C)(=O)=O)ccc1Nc1c2cccc(C)c2nc2c(C)c(C)ccc12 [Compound C28]	76%		
COc1cc(NS(C)(=O)=O)ccc1Nc1c2ccc(C)cc2nc2c(C)c(C)ccc12 [Compound C29]	58%		
COc1cc(NS(C)(=O)=O)ccc1Nc1c2ccc([N+](=O)[O-])cc2nc2c(C)c(C)ccc12 [Compound C30]	92%		
COc1cc(NS(C)(=O)=O)ccc1Nc1c2ccc(N)cc2nc2c(C)c(C)ccc12 [Compound C31]	79%		
CNc1ccc2c(Nc3ccc(NS(C)(=O)=O)cc3OC)c3ccc(C)c(C)c3nc2c1 [Compound C32]	64%		
COc1cc(NS(C)(=O)=O)ccc1Nc1c2ccccc2nc2ccc(N)cc12 [Compound M1]			106%
COc1cc(NS(C)(=O)=O)ccc1Nc1c2ccccc2nc2cc(C)ccc12 [Compound M2]			88%
COc1cc(NS(C)(=O)=O)ccc1Nc1c2ccccc2nc2cc(C(N)=O)ccc12 [Compound M3]			150%
CNC(=O)c1ccc2c(Nc3ccc(NS(C)(=O)=O)cc3OC)c3ccccc3nc2c1 [Compound M4]			92%
COc1cc(NS(C)(=O)=O)ccc1Nc1c2ccccc2nc2cc(Cl)ccc12 [Compound M5]			72%
COc1cc(NS(C)(=O)=O)ccc1Nc1c2ccccc2nc2cc(Br)ccc12 [Compound M6]			119%
COc1cc(NS(C)(=O)=O)ccc1Nc1c2ccccc2nc2cc(I)ccc12 [Compound M7]			98%
COc1cc(NS(C)(=O)=O)ccc1Nc1c2ccccc2nc2cc(C(F)(F)F)ccc12 [Compound M8]			63%
COc1cc(NS(C)(=O)=O)ccc1Nc1c2ccccc2nc2cc(N)ccc12 [Compound M9]			82%
CNc1ccc2c(Nc3ccc(NS(C)(=O)=O)cc3OC)c3ccccc3nc2c1 [Compound M10]			94%
COc1cc(NS(C)(=O)=O)ccc1Nc1c2ccccc2nc2cc([N+](=O)[O-])ccc12 [Compound M11]			84%
COc1cc(NS(C)(=O)=O)ccc1Nc1c2ccccc2nc2c(C)cccc12 [Compound M12]			111%
COc1cc(NS(C)(=O)=O)ccc1Nc1c2ccccc2nc2c(C(N)=O)cccc12 [Compound M13]			112%
CNC(=O)c1cccc2c(Nc3ccc(NS(C)(=O)=O)cc3OC)c3ccccc3nc12 [Compound M14]			135%
COc1cc(NS(C)(=O)=O)ccc1Nc1c2ccccc2nc2c(C(=O)NCC(N)=O)cccc12 [Compound M15]			98%
COc1cc(NS(C)(=O)=O)ccc1Nc1c2ccccc2nc2c(OC)cccc12 [Compound M16]			110%

Reference: patent publication US4472582A, “3,5-Disubstituted-4'-(9-acridinylamino)-methane-sulfon-m-anisidide compounds having antitumor properties” (Development Finance Corporation of New Zealand, priority 1979, dated 1984)
